Our source for the mortality values is patent US4110345A, “2,2-Difluoro-1,3-benzodioxole-5-(α-alkyl)-acetic acids, and their use for the preparation of insecticides and acaricides” (American Cyanamid Company, priority 1977, dated 1978).

Like-named read-outs stand apart in the source and are kept apart here.

In assay [1] the test system is Third-Instar Tobacco Budworm Larvae. Description: whole plant or invertebrate. It counts as in vivo. The following applies: Heliothis virescens, in Gossypium hirsutum, foliar, 72 h, larval counts after 72 hours; for mortality at 30 ppm: read-out: Average % Mortality, 30 ppm; for mortality at 100 ppm: read-out: Average % Mortality, 100 ppm; for mortality at 300 ppm: read-out: Average % Mortality, 300 ppm; for mortality at 900 ppm: read-out: Average % Mortality, 900 ppm. The source says:
Residual insecticidal activity obtained with foliar treatment of cotton plants Young cotton plants with at least two expanded true leaves growing in 10 cm plastic pots were dipped, usually one leaf at a time in a 65% acetone-35% water solution of test compound with agitation for three seconds. The concentration of the compound in the solutions was 30 ppm, 100 ppm, 300 ppm or 900 ppm of active ingredient. After the leaves had dried, two leaves from each of two plants were excised and placed in petri dishes (90 mm × 100 mm) on moist filter paper (9 cm Whatman No. 1). Five third-instar tobacco budworm larvae were placed on each leaf and the petri dish capped. The infested dishes were than placed in a holding room with continuous light, ambient temperature of 80° F and 50% r.h. Larval counts were made after 72 hours. The remaining plants were placed under high intensity lights in the greenhouse adjusted to provide 14 hours of light per day. Leaf samples were assayed with third instar tobacco budworm larvae after 3, 7, 10 and 14 days exposure in the greenhouse. The data obtained are summarized in Table I. |Residual Insecticidal Activity of a Test Compound on Cotton Plants Using |Third-Instar Tobacco Budworm Larvae for Bioassay | * = Average % Mortality 20 TBW/Point

Assay [2] has as its system adult Boophilus microplus ticks. Nature of the assay: whole plant or invertebrate. It counts as in vivo. The conditions noted are these: Rhipicephalus microplus, in Bos taurus, topical, 48 h, read-out: Percent Adult Tick Mortality. The method, then:
The effectiveness of an acaricide prepared from the novel 2,2-difluoro-1,3-dioxole-5-(α-alkyl)acetic acids of the present invention for the control of adult Boophilus microplus ticks is determined in the following test wherein the test compound is dissolved in 10% acetone-90% water mixture in sufficient amounts to give solutions containing […] ppm of test compound.
Adult engorged female ticks are dipped in the test solutions for 3 seconds and placed in individual containers and held for 48 hours in a room maintained at 80° F and 50% r.h. At the end of the holding period the ticks are examined and egg deposits counted. […]
Percent Adult Tick Mortality

In general, mortality refers to the percentage killed. In the case of `CC(C)C(C(=O)OC(C#N)c1cccc(Oc2ccccc2)c1)c1ccc2c(c1)OC(F)(F)O2` (stereo not shown) [drawing 6], the mortality at 30 ppm was determined as 45% in assay [1] (0 days residual); 0% in assay [1] (3 days residual); 10% in assay [1] (7 days residual); 10% in assay [1] (10 days residual); 10% in assay [1] (14 days residual). Further, the mortality at 100 ppm in assay [1] (0 days residual) is 90%; in assay [1] (3 days residual), 55%; in assay [1] (7 days residual), 55%; in assay [1] (10 days residual) it was 65%; in assay [1] (14 days residual), 10%. Further, the mortality at 300 ppm in assay [1] (0 days residual) turned out to be 95%; in assay [1] (3 days residual), 90%; in assay [1] (7 days residual), 100%; in assay [1] (10 days residual), 90%; in assay [1] (14 days residual), 95%. The mortality at 900 ppm in assay [1] (0 days residual), in assay [1] (3 days residual), in assay [1] (7 days residual), in assay [1] (10 days residual) and in assay [1] (14 days residual) was 100% in each case.

Consider `CC(C)C(C(=O)OC(C#N)c1cccc(Oc2ccccc2)c1)c1ccc2c(c1)OC(F)(F)O2` (stereo not shown) [drawing 7], for which, in assay [2], the mortality at 7.3 ppm worked out at 80.2%, the mortality at 15.6 ppm is 85.8%, the mortality at 31.2 ppm stood at 88.4% and the mortality at 62.5 ppm stood at 99.7%. In addition, the mortality at 125 ppm in assay [2] worked out at 98.3%.
